In patent US20210292304A1 (HINOVA PHARMACEUTICALS INC., priority 2018, published 2021):

Target: T1, CYP2C8 (Homo sapiens, UniProt P10632)
T1 sequence (P10632 1-490): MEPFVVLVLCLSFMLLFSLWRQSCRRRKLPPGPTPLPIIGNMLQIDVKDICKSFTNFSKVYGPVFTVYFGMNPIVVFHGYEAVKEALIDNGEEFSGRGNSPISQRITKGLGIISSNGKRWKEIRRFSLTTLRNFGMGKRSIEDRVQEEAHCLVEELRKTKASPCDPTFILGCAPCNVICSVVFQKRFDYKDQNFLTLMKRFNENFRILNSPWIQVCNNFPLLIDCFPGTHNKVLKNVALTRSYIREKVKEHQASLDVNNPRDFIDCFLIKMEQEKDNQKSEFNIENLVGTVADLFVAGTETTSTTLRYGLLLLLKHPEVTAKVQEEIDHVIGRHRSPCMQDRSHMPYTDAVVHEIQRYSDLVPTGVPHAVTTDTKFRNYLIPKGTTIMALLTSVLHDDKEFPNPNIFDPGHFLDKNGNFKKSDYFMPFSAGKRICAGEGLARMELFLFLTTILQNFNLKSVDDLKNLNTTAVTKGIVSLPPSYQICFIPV
Experiment: Metabolic stability in recombinant human CYP2C8 metabolic enzyme
Assay type: in vitro ADME
Settings: CYP subtype 2C8, test concentration 2 (M); for half-life at 2 µM: human, recombinant CYP2C8, pH 7.4, read-out: Half-life T1/2
Experimental: 1) Na2HPO4, KH2PO4, and pure water were used to prepare phosphate buffer (100 mM, pH 7.4);
2) Test compound and reference compound were dissolved in acetonitrile to obtain a working solution (200 M);
3) NADPH solution (10 mM) was prepared with NADPH and phosphate buffer (100 mM, pH 7.4);
4) The stock solution of recombinant CYP2C8 enzyme was diluted to […] with phosphate buffer (100 mM, pH 7.4);
5) The working solution of test compound or reference compound Amitriptyline was added to CYP2C8 solution, and the concentration of compound was 2 M, to which was added NADPH solution (10 mM) to initiate a metabolic reaction. 30 L incubation solution of metabolic reaction was collected at 0, 5, 10, 15, 25 minutes, and transferred to a quenching plate to quench with 120 L acetonitrile (including internal standard);
6) The sample was centrifuged at 4° C. for 60 min to precipitate the protein. The supernatant was collected and transferred to a 96-well plate, then diluted one times with pure water, and subjected to LC-MS/MS analysis;
7) The data analysis and calculation were similar to experimental example 2.

| Clearance rate CLint | Percentage of residual substances after 25 minutes | half-life at 2 µM | SMILES |
| --- | --- | --- | --- |
| 0.07 μL/min/pmol CYP450 | 81.60% | 1.6 h | [2H]c1c(Oc2c(Cl)cc(-n3nc(C#N)c(=O)[nH]c3=O)cc2Cl)n[nH]c(=O)c1C([2H])(C([2H])([2H])[2H])C([2H])([2H])[2H] [Compound 10, 2-(3,5-dichloro-4-((4-deuterio-5-(heptadeuteroisopropyl)-6-oxo-1,6-dihydro-pyridazin3-yl)oxy)phenyl)-3,5-dioxo-2,3,4,5-tetrahydro-1,2,4-triazine-6-carbonitrile] |
| 0.08 μL/min/pmol CYP450 | 80.87% | 1.51 h | [2H]C([2H])([2H])C([2H])(c1cc(Oc2c(Cl)cc(-n3nc(C#N)c(=O)[nH]c3=O)cc2Cl)n[nH]c1=O)C([2H])([2H])[2H] [Compound 2] |
| 0.06 μL/min/pmol CYP450 | 85.57% | 1.83 h | [2H]c1c(Oc2c(Cl)cc(-n3nc(C#N)c(=O)[nH]c3=O)cc2Cl)n[nH]c(=O)c1C(C([2H])([2H])[2H])C([2H])([2H])[2H] [Compound 11, 2-(3,5-dichloro-4-((4-deuterio-5-(1,1,1,3,3,3-hexadeuteropropan-2-yl)-6-oxo-1,6-dihydro-pyridazin-3-yl)oxy)phenyl)-3,5-dioxo-2,3,4,5-tetrahydro-1,2,4-triazine-6-carbonitrile] |
